Experimental data published in ChEMBL document CHEMBL5518182, “Discovery and development of BI 1265162, an ENaC inhibitor for the treatment of cystic fibrosis” (Eur J Med Chem, 2024).
Active and inactive are the calls of the source. The rule behind the calls is not given here.

Tests used:
[1] = Inhibition of ENaC in mouse M1 cells upto 10 uM by chamber assay; type: cell-based; settings: m1 cell
M1 cell = assay: Inhibition of ENaC-mediated water resorption in mouse M1 cells at 3 uM by radiometric dilution assay relative to control; type: cell-based
Lung [2] = assay: Inhibition of lung water resorption in Wistar rat at 3 ug/kg, IT(Intratracheal) incubated for 3 hrs relative to control; type: functional
Lung [3] = assay: Inhibition of lung water resorption in Wistar rat at 30 ug/kg, IT(Intratracheal) incubated for 3 hrs relative to control; type: functional
[4] = Permeability across basal to apical side in human Calu-3 cells at 0.1 to 300 uM measured upto 2 hrs by HPLC-MS/MS analysis; type: ADME, cell-based; settings: dose 0.1-300 µM, read-out: permeability
[5] = Solubility of compound at pH 5; type: physicochemical; settings: buffer
[6] = molecular target: Acetylcholinesterase (Homo sapiens) (UniProt P22303); assay: Inhibition of AChE (unknown origin) at 10 uM relative to control
Lung [7] = assay: Inhibition of lung water resorption in Wistar rat at 0.3 ug/kg, IT(Intratracheal) incubated for 3 hrs relative to control; type: functional
Rattus norvegicus [8] = organism: Rattus norvegicus; assay: Upregulation of serum potassium level in Han Wistar rat; type: functional, organism-based
Rattus norvegicus [9] = assay: Upregulation of serum aldosterone level in Han Wistar rat model of lung fluid absorption at 3 ug/kg, IT(Intratracheal) measured after 3 hrs relative to control; type: functional; settings: dose 3 µg/kg
Rattus norvegicus [10] = assay: Effect on Han Wistar rat model of lung fluid absorption at ED70 administered intratracheally measured after 20 hrs; type: functional; settings: route it(Intratracheal)
Rattus norvegicus [11] = assay: Acute effect on Han Wistar rat model of lung fluid absorption administered intratracheally measured after 3 hrs; type: functional; settings: route it(Intratracheal)

Acetylcholinesterase (Homo sapiens), sequence (P22303 whole entry): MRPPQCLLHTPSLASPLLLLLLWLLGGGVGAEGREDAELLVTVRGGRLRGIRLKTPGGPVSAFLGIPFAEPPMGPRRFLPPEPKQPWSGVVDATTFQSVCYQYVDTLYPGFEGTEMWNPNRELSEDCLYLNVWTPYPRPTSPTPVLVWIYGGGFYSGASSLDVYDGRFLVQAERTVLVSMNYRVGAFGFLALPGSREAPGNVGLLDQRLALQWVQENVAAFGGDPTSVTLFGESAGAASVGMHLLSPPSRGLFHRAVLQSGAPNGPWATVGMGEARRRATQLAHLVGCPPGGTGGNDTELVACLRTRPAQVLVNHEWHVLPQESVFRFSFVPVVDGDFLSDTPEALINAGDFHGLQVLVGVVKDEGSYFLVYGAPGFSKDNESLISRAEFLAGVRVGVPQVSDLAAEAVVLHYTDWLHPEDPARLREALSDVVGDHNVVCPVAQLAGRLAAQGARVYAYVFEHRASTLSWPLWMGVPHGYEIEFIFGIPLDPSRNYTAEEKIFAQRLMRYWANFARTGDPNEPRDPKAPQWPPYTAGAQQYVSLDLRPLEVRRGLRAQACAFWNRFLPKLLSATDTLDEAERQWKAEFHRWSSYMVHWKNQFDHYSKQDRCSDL

Row | SMILES | IC50 [1] | inhibition (M1 cell) | Papp B→A at 2 h, up to 300 µM [4] | solubility [5] | also measured
1 | CCn1c(CNC(=O)c2nc(Cl)cnc2N)[n+](CC)c2cc(C(=O)NCCCN)ccc21 | 3.6 nM | 83% |  |  | inhibition in vivo at 0.003 mg/kg (Lung [2]): 25%; inhibition in vivo at 0.03 mg/kg (Lung [3]): 24%
2 | Cn1c(CNC(=O)c2nc(Cl)cnc2N)[n+](C)c2ccccc21 | 81 nM |  |  |  | 
3 | CCn1c(CNC(=O)c2cc(Cl)cnc2N)[n+](CC)c2ccccc21 | 50 nM |  |  |  | 
4 | CCn1c(CNC(=O)c2nccnc2N)[n+](CC)c2ccccc21 | 169 nM |  |  |  | 
5 | CCOP(=O)([O-])CCCOc1ccc2c(c1)[n+](CC)c(CNC(=O)c1nc(Cl)c(N)nc1N)n2CCCC#N | 19 nM | 83% | 0.22 ×10⁻⁶ cm/s | > 5% | inhibition in vivo at 0.003 mg/kg (Lung [2]): 6%; inhibition in vivo at 0.03 mg/kg (Lung [3]): 16%
6 | CCn1c(CNC(=O)c2nc(Cl)cnc2N)[n+](CC)c2cc(C(=O)O)ccc21 | 29 nM |  | 0.17 ×10⁻⁶ cm/s |  | 
7 | CCn1c(CNC(=O)c2nc(Cl)cnc2N)[n+](CC)c2ccc(C(=O)NCCCN)cc21 |  |  | 0.22 ×10⁻⁶ cm/s | > 2% | 
8 | CC[n+]1c(CNC(=O)c2nc(Cl)c(N)nc2N)n(CC2CCOCC2)c2ccc(OCC(=O)N(Cc3nc(C)ccc3O)C[C@H](C)O)cc21 | 2.5 nM | 63% | 0.2 ×10⁻⁶ cm/s | < 2% | 
9 | CCn1c(CNC(=O)c2nc(Cl)c(N)nc2N)[n+](CC)c2cc(OCCCP(=O)([O-])OC[C@H]3CCCO3)ccc21 | 10 nM | 89% | 0.06 ×10⁻⁶ cm/s | > 5% | inhibition in vivo at 0.003 mg/kg (Lung [2]): 14%; inhibition in vivo at 0.03 mg/kg (Lung [3]): 16%
10 | CC[n+]1c(CNC(=O)c2nc(Cl)c(N)nc2N)n(CC(=O)OC)c2ccc(OC)cc21 | 0.5 nM |  |  |  | 
11 | CCOP(=O)([O-])CCCOc1ccc2c(c1)[n+](CC)c(CNC(=O)c1nc(Cl)c(N)nc1N)n2CC1CCOCC1 | 8.3 nM | 81% | 0.17 ×10⁻⁶ cm/s | < 5% | 
12 | CCn1c(CNC(=O)c2nc(Cl)c(N)nc2N)[n+](CC)c2ccccc21 | 0.2 nM |  |  |  | 
13 | Cn1c(CNC(=O)c2nc(Cl)c(N)nc2N)[n+](C)c2ccccc21 | 19 nM |  |  |  | 
14 | CCn1c(CNC(=O)c2nc(Cl)c(N)nc2N)[n+](CCO)c2cc(OCC(=O)N3CCN(C(C)=O)CC3)ccc21 | 3.1 nM | 92% | 0.31 ×10⁻⁶ cm/s | < 2% | 
15 | CCn1c(CNC(=O)c2ncc(C)nc2N)[n+](CC)c2ccccc21 | 1670 nM |  |  |  | 
16 | CCn1c(CNC(=O)c2nc(Cl)c(N)nc2N)[n+](CCO)c2cc(OC)ccc21 | 0.5 nM |  |  |  | 
17 | CCn1c(CNC(=O)c2nc(Cl)cnc2N)[n+](CC)c2cc(OCC(=O)OC)ccc21 | 0.7 nM | 65% | 0.25 ×10⁻⁶ cm/s |  | 
18 | CC[n+]1c(CNC(=O)c2nc(Cl)cnc2N)n(CC2CCOCC2)c2ccc(OCC(=O)N(Cc3nc(C)ccc3O)C[C@H](C)O)cc21 | 8.6 nM | 72% | 0.12 ×10⁻⁶ cm/s | > 5% | inhibition [6]: 18%; inhibition in vivo at 0.0003 mg/kg (Lung [7]): 8%; inhibition in vivo at 0.003 mg/kg (Lung [2]): 17%; inhibition in vivo at 0.03 mg/kg (Lung [3]): 33%

Row | SMILES | IC50 [1] | inhibition (M1 cell) | Papp B→A at 2 h, up to 300 µM [4] | solubility [5] | also measured
19 | CCn1c(CNC(=O)c2nc(Cl)c(N)nc2N)[n+](CC)c2cc(OCCCP(=O)([O-])OCCOC)ccc21 | 4.2 nM | 98% | 0.03 ×10⁻⁶ cm/s | > 5% | inhibition in vivo at 0.003 mg/kg (Lung [2]): 12%; inhibition in vivo at 0.03 mg/kg (Lung [3]): 22%
20 | CCn1c(CNC(=O)c2nc(Cl)c(N)nc2N)[n+](CCCO)c2cc(OC)ccc21 | 0.3 nM |  |  |  | 
21 | CC[n+]1c(CNC(=O)c2nc(Cl)c(N)nc2N)[nH]c2ccc(OC)cc21 | 26 nM |  |  |  | 
22 | CCn1c(CNC(=O)c2nc(Br)cnc2N)[n+](CC)c2ccccc21 | 0.7 nM |  |  |  | 
23 | CC[n+]1c(CNC(=O)c2nc(Cl)cnc2N)n(CCOCCOCCO)c2ccc(OC)cc21 | 3 nM |  |  |  | 
24 | CCn1c(CNC(=O)c2nc(Cl)cnc2N)[n+](CC)c2cc(C(=O)OC)ccc21 | 3 nM |  |  |  | 
25 | CCn1c(CNC(=O)c2nc(Cl)c(N)nc2N)nc2cc(OC)ccc21 | 168 nM |  |  |  | 
26 | CCn1c(CNC(=O)c2nc(Cl)cnc2N)[n+](CCO)c2cc(OCC(=O)N3CCN(C(C)=O)CC3)ccc21 | 18 nM | 76% | 0.7 ×10⁻⁶ cm/s | > 5% | inhibition [6]: 75%; inhibition in vivo at 0.003 mg/kg (Lung [2]): 75%
27 | CCn1c(CNC(=O)c2nc(Cl)c(NC)nc2N)[n+](CC)c2ccccc21 | 305 nM |  |  |  | 
28 | CC[n+]1c(CNC(=O)c2nc(Cl)c(N)nc2N)n(CC(=O)O)c2ccc(OC)cc21 | 6.5 nM |  |  |  | 
29 | CCn1c(CNC(=O)c2nc(Cl)cnc2N)[n+](CC)c2cc(OCC(=O)NCCOCP(C)(C)=O)ccc21 | 3.4 nM | 72% |  |  | Activity (Rattus norvegicus [8]): inactive; Activity (Rattus norvegicus [9]): <25%; Efficacy (Rattus norvegicus [10]): 31%; inhibition [6]: 29%; inhibition in vivo at 0.0003 mg/kg (Lung [7]): 30%; ED50 (Rattus norvegicus [11]): 0.09 µg/kg; ED70 (Rattus norvegicus [11]): 0.18 µg/kg; inhibition in vivo at 0.003 mg/kg (Lung [2]): 31%; inhibition in vivo at 0.03 mg/kg (Lung [3]): 30%
30 | CC[n+]1c(CNC(=O)c2nc(Cl)c(N)nc2N)n(CCOCCOCCO)c2ccc(OC)cc21 | 0.5 nM |  |  |  | 
31 | CCn1c(CNC(=O)c2nc(Cl)cnc2N)[n+](CC)c2cc(OCC(=O)O)ccc21 | 16 nM | 70% | 0.22 ×10⁻⁶ cm/s |  | 
32 | CCn1c(CNC(=O)c2nc(Cl)c(N)nc2N)[n+](CC)c2cc(OC)ccc21 | 0.3 nM |  |  |  | 
33 | CCn1c(CNC(=O)c2nc(Cl)cnc2N)[n+](CC)c2cc(C(=O)N3CCC(N(C)C)CC3)ccc21 | 4.2 nM | 79% | < 0.13 ×10⁻⁶ cm/s | > 2% | inhibition [6]: 11%; inhibition in vivo at 0.0003 mg/kg (Lung [7]): 19%; inhibition in vivo at 0.003 mg/kg (Lung [2]): 25%; inhibition in vivo at 0.03 mg/kg (Lung [3]): 26%
34 | CCn1c(CNC(=O)c2nc(Cl)cnc2N)[n+](CC)c2ccccc21 | 0.7 nM |  |  |  | 
35 | CCn1c(CNC(=O)c2cc(Cl)ccc2N)[n+](CC)c2ccccc21 | 19 nM |  |  |  | 
36 | CCn1c(CNC(=O)c2nc(Cl)cnc2N)[n+](CC)c2cc(C(=O)N3CCC(N)CC3)ccc21 | 5 nM | 84% | 0.18 ×10⁻⁶ cm/s | > 2% | inhibition in vivo at 0.003 mg/kg (Lung [2]): 13%; inhibition in vivo at 0.03 mg/kg (Lung [3]): 26%
